The source of these data is patent US20220378732A1, “SmartCore Compositions and Methods” (NPI, LLC, priority 2020, published 2022).

For one assay, the system named is T2D mouse model. Put plainly: serum LPC-fatty acid levels after 4 weeks of administration in T2D mouse model. In kind it is in vivo, mice. The following applies: for serum concentration of LPC-arachidonic acid (AA) / serum concentration of LPC-eicosapentaenoic acid (EPA) / serum concentration of α-linolenic acid (aLA): FIG. 5; for change in serum LPC-18:2 / change in serum LPC-DHA: T2D mouse model, 4 weeks of administration; for change in serum LPC-18:2: FIG. 3; for change in serum LPC-DHA: FIG. 4. As to the method:
To validate the inventors' hypotheses on the biological activity of the lignan and methyl donor various animal experiments were performed using mice as test subjects. Diabetes (type 1 and type 2) was used as model disease for LPC deficiency. Type 2 (T2D) diabetic mice were 6-week-old BKS.Cg-Dock7m+/+Leprdb/J (db/db), leptin receptor deficient. Hyperglycemia was confirmed (BG>250 mg/dl). Upon confirmation, all animals were subjected to 4-week treatment as indicated below. Treatment groups were as follows: Control, MSM treatment alone, sesame seed oil treatment alone, and MSM+sesame seed oil treatment. For harvest, serum was collected for lipid panel and analyzed using standard clinical protocol and equipment. Tissues (brain, eyes, heart, liver, kidneys) for fatty acid analysis was frozen at −80° C., and liver sections preserved in formalin for histology. MSM was administered as 1% MSM solution in water: 15-20 ml water was given per ˜25 g mouse per day (6-8 g/kg dose for ˜25 g mouse; 3-5 g/kg dose for ˜40 g mouse). Sesamin was provided as 1.58 mg/mL sesamin in sesame seed oil with 0.12-0.15 mg/g sesamin in mouse food (T1D: 4.4 g food per mouse per day; T2D: 7-8 g food per mouse per day; 20-22 mg/kg dose for mouse (both models)). After 4 weeks of administration of the tested compounds in the T2D mouse model, LPC-18:2 and LPC-DHA were determined from plasma and exemplary results are shown in FIG. 3 and FIG. 4, respectively.

The subject of assay [1] is high-fat diet-induced dyslipidemia. The following applies: Nutrients 2016, 8, 276; cited from earlier work.
In assay [2] the test system is mice with high-fat diet-induced diabetes. As to conditions: Exp Physiol 100.11 (2015); cited from earlier work.

For `CS(C)(=O)=O` [MSM, methylsulfonylmethane], in the assay with T2D mouse model, the “serum concentration of LPC-arachidonic acid (AA)” value was “did not result in an increase”, the “serum concentration of LPC-eicosapentaenoic acid (EPA)” value was “did not result in an increase”, the “serum concentration of α-linolenic acid (aLA)” value is given as “did not result in an increase” and the “change in serum LPC-18:2” value is on record as “did not trigger a statistically relevant change”. The “change in serum LPC-DHA” value with T2D mouse model is on record as “did not trigger a statistically relevant change”.
For `c1cc2c(cc1[C@H]1OC[C@H]3[C@@H]1CO[C@@H]3c1ccc3c(c1)OCO3)OCO2` [sesamin], in the assay on T2D mouse model, the “serum concentration of LPC-arachidonic acid (AA)” value was “did not result in an increase”, the “serum concentration of LPC-eicosapentaenoic acid (EPA)” value is on record as “did not result in an increase”, the “serum concentration of α-linolenic acid (aLA)” value is “did not result in an increase” and the “change in serum LPC-18:2” value was “did not trigger a statistically relevant change”. In the assay on T2D mouse model, the “change in serum LPC-DHA” value was “did not trigger a statistically relevant change”. The “effect on high-fat diet-induced dyslipidemia and kidney injury” value in assay [1] is “ameliorating high-fat diet-induced dyslipidemia and kidney injury”. Moreover, in assay [2], the “effect on exercise capacity and skeletal muscle mitochondrial function” value is “prevent decline in exercise capacity and impairment of skeletal muscle mitochondrial function”.
